Reference: ChEMBL document CHEMBL1158323, “Biomimetic cyclization of cnicin to malacitanolide, a cytotoxic eudesmanolide from Centaurea malacitana” (J Nat Prod, 1997)
Converted amounts (≈) assume the structure as drawn.

What was measured:
Type in all cases: functional, cell-based
P388 = experiment: Cytotoxicity against mouse P388 cells
[1] = Cytotoxicity against mouse SCHABEL cells
A549 = experiment: Cytotoxicity against human A549 cells
HT-29 = experiment: Cytotoxicity against human HT29 cells
SK-MEL-28 = experiment: Cytotoxicity against human SK-MEL-28 cells

Structure (SMILES)	IC50 (P388)	IC50 [1] [µg/mL]	IC50 (A549)	IC50 (HT-29)	IC50 (SK-MEL-28) [µg/mL]
C=C1C(=O)O[C@@H]2/C=C(\CO)CC/C=C(\C)C[C@H](OC(=O)/C(C)=C\COC(C)=O)[C@@H]12	2.5 µg/mL	2.5 (≈ 6.18 µM)	5 µg/mL	5 µg/mL	5 (≈ 12.4 µM)
C=C1C(=O)O[C@H]2[C@H]1[C@@H](OC(=O)C(=C)[C@@H](O)CO)C[C@]1(C)[C@@H]2[C@@H](C=O)CC[C@H]1O [MALACITANOLIDE]	0.12 µg/mL	0.12 (≈ 0.304 µM)	0.12 µg/mL	0.12 µg/mL	0.12 (≈ 0.304 µM)
C=C1C(=O)O[C@@H]2/C=C(\CO)CC/C=C(\C)C[C@H](OC(=O)C(=C)[C@H](O)CO)[C@@H]12 [CNICIN]	6.6 µM		13.2 µM	13.2 µM	
